Measurements published in patent US6417180B1, “Zinc finger-reactive antimicrobial compounds” (priority 1998, dated 2002).

Key:
[1] = target: T1, H909A B. subtilis pol III (Bacillus subtilis, UniProt P13267, H909A); assay: TMAU sensitivity of polymerase activity, H909A mutant; format: biochemical; conditions: H909A enzyme
T1 construct: The H909A enzyme, although expressed as a full-length protein, was not readily produced in an amount sufficient for metal analysis; made in house; host or cells: E. coli SG101, plasmid pSGA04
Procedure: (§1) Polymerase activity was determined as described in Barnes et al., Meth. Enzymol., 262:35-42, 1995, using activated calf thymus DNA (Worthington) as template and primer and [^3H]dTTP as the substrate. One unit of polymerase activity was defined as the activity which catalyzes the incorporation of one nanomole of [^3H]dTMP in 10 minutes at 30° C. For determination of the KM of the polymerase for DNA, the concentration of activated calf thymus DNA was varied during assay from 0-0.8 mg/ml. For determination of the KM for dGTP, incorporation of [^3H] dTMP was followed as a function of dGTP concentration (0-0.5 mM), and the values for incorporation were corrected for dGTP-independent, background incorporation.
(§2) An oligonucleotide-based system (Altered Sites, Promega) was used to introduce the mutations into the segment of polC encoding the putative zinc finger. […]
(§3) Each of the five purified mutant enzymes of Table I was analyzed directly, in its native, undialyzed form, to assess the impact of the respective mutation on (1) exonuclease and polymerase activity; (2) affinity for exonuclease and polymerase substrates; and (3) sensitivity of the polymerase activity to TMAU, a dGTP analog which inhibits the pol III of Gram-positive eubacteria (Wright et al., Pharmac. Therap., 47:447-497, 1990).

[2] = target: T2, C940A B. subtilis pol III (Bacillus subtilis, UniProt P13267, C940A); assay: TMAU sensitivity of polymerase activity, C940A mutant; format: biochemical; conditions: C940A enzyme
T2 construct: Each of the three full-length mutants (C912A, C915A, and C940A); made in house; host or cells: E. coli SG101, plasmid pSGA04
Procedure: as §1, §2, §3

[3] = target: T3, Wildtype B. subtilis pol III (Bacillus subtilis, UniProt P13267); assay: TMAU sensitivity of polymerase activity, wild-type enzyme; format: biochemical
T3 construct: made in house; host or cells: E. coli SG101, plasmid pSGA04
Procedure: as §1
Tagged wild-type and mutant forms of pol III were obtained at greater than 95% homogeneity using the procedure of Example 1 above. The proteins were then subjected to EDTA-based dialysis, and analyzed for zinc content as described in Example 1.
as §3

[4] = target: T4, C915A B. subtilis pol III (Bacillus subtilis, UniProt P13267, C915A); assay: TMAU sensitivity of polymerase activity, C915A mutant; format: biochemical; conditions: C915A enzyme
T4 construct: Each of the three full-length mutants (C912A, C915A, and C940A); made in house; host or cells: E. coli SG101, plasmid pSGA04
Procedure: as §1, §2, §3

[5] = system: S. aureus; conditions: 40 mg/kg intravenously every four hours; cited from earlier work
[6] = system: methicillin-sensitive S. aureus (ATCC No. 29213); assay: Thigh infection in neutropenic ICR/Swiss mice (Example 10); format: in vivo; conditions: 40 mg/kg i.v. at 2, 6, 12, 18 hours post-infection; 24 hours after infection; 100× diluted homogenate; saline controls about 500
Procedure: Before infection with test bacteria, six six-week old pathogen-free ICR/Swiss mice are rendered neutropenic (less than 100 neutrophils per milliliter of blood) by intraperitoneal injection of two doses of cyclophosphamide. The first injection is made at 150 mg/kg four days before bacterial infection, and the second injection is made at 100 mg/kg one day before bacterial infection. Neutropenia is induced so that a wide variety of bacteria can be used for the subsequent infection.
Bacterial infection for each mouse is performed by inoculating 10^6 cfu of methicillin-sensitive S. aureus (ATCC No. 29213) in 100 μl of media into the right thigh muscle. The compound and control mixtures are administered intravenously into the tail vein of the animal at 2, 6, 12, and 18 hours post-infection. Two mice received 50 μl of a negative control mixture of physiological saline at each time point. Another pair of mice received a positive control mixture of 40 mg/kg body weight vancomycin in saline at each time point. The last two mice received 40 mg/kg body weight of the candidate compound in saline at each time point.
At 24 hours after infection, all mice are sacrificed, and the right thigh muscle of each mice removed. […] After incubating at 37° C. for 24 hours, the number of colonies on each plate is counted. […]

[7] = target: T5, B. subtilis pol III (Bacillus subtilis, UniProt P13267); assay: Polymerase activity of pol III after treatment with zinc-removing compound; format: biochemical; conditions: 0.2 mM MMTS, one hour
T5 construct: the so-called wild-type pol III, was identical to the native enzyme found in B. subtilis; made in house; host or cells: E. coli AR120, plasmid pKC30/polC
Procedure: as §1
(§4) 0.2 nanomoles of pol III was mixed in 0.1 ml of HNE buffer (10 mM HEPES, 100 mM NaCl, and 10% glycerol [pH 7.6]) containing 0.3 mM Compound 20, and the mixture was incubated at 25° C. for one hour. The pol III was removed from Compound 20 by passage through a Sephadex G-25 spin column, and the enzyme assayed for polymerase activity and for its content of radioactive zinc (see procedures described above).
Ejection of Zinc by Treatment of Coordinating Thiolates with MMTS. The compound MMTS is described in Example 2 above. […]

[8] = target: T5, B. subtilis pol III; assay: Radioactive zinc content of 65Zn-labeled pol III after treatment with zinc-removing compound; format: biochemical; conditions: 0.2 mM MMTS, one hour
Procedure: as §4
Ejection of Zinc by Treatment of Coordinating Thiolates with MMTS. The compound MMTS is described in Example 2 above. 0.2 nanomoles of ^65Zn-labeled B. subtilis pol III was incubated with HNE buffer with or without 0.2 mM MMTS for one hour, and the samples assayed as described for the pol III treatment with Compound 20.

[9] = target: T5, B. subtilis pol III; assay: 65Zn release from labeled pol III by MMTS (Sephadex G-25 separation); format: biochemical; conditions: 60 minutes, 0° C.
Procedure: Pol III was labeled by growing bacteria transformed with the above-described pol III expression plasmids in the presence of ^65Zn. LB expression medium was first depleted of divalent trace metals by mixing the medium with 0.3 volume of Chelex-Na (Bio-Rad) for 24 hours at 0° C. The depleted medium was then supplemented with 0.1 mM MgCl2 to support a level of E. coli growth compatible with pol III expression. E. coli AR120 transformed with the pKC30/polC vector was grown at 30° C. in this magnesium-supplemented medium. When the culture reached an absorbance of 0.5 ([…], 1 cm path length), 10 ml of the culture was added to one liter of the zinc-depleted, magnesium-supplemented medium, which further included [^65Zn]Cl2 (New England Nuclear; specific activity of 2.7 mCi/μmole) to a radioactivity level of 1.1 μCi/ml medium. Incubation was continued until the culture reached an absorbance of 0.75. […]
To remove non-specifically bound ^65Zn and exogenous thiols, the pol III was dialyzed as described in Example 1 above, and the labeled protein was further dialyzed with HNE buffer (10 mM HEPES [pH 7.6], 100 mM NaCl, and 0.1 mM EDTA) to remove exogenous thiols. […] The fraction eluted with each step was analyzed by liquid scintillation counting to determine the amount of protein-bound ^65Zn (void volume) and the amount of free ^65Zn (included volume).

[10] = target: T5, B. subtilis pol III; assay: Reconstitution of zinc-deficient inactive polymerase with ZnCl2/DTT; format: biochemical; conditions: pol III inactivated by MMTS; 0.01 mM ZnCl2 and 0.01 mM DTT, 25° C., 12 hours
Procedure: At 30 minute intervals, samples were removed and assayed for pol activity.

O=c1cc(Nc2ccc3c(c2)CCC3)[nH]c(=O)[nH]1 [TMAU]
IC50 [1]: 4 µM
IC50 [2]: 4 µM
IC50 [3]: 4.1 µM
IC50 [4]: 2.9 µM

CN[C@H](CC(C)C)C(=O)N[C@H]1C(=O)N[C@@H](CC(N)=O)C(=O)N[C@H]2C(=O)N[C@H]3C(=O)N[C@H](C(=O)N[C@H](C(=O)O)c4cc(O)cc(O)c4-c4cc3ccc4O)[C@H](O)c3ccc(c(Cl)c3)Oc3cc2cc(c3O[C@@H]2O[C@H](CO)[C@@H](O)[C@H](O)[C@H]2O[C@H]2C[C@](C)(N)[C@H](O)[C@H](C)O2)Oc2ccc(cc2Cl)[C@H]1O [vancomycin]
reduction in S. aureus proliferation compared with control thighs [5]: two to four
colonies from thigh muscle homogenate [6]: about 40 colonies on each plate

CSS(C)(=O)=O [MMTS, methylmethanethio-sulfonate]
pol III activity relative to control [7]: less than 1 % of the control
radioactive zinc content relative to control [8]: less than 2 % of the control
65Zn label released from pol III ([9]; 0.01 mM MMTS): about 50%
65Zn label released from pol III ([9]; three higher concentrations (0.03, 0.10, 0.3 mM MMTS)): greater than 95%
reactivation of pol activity after treatment [10]: No reactivation
